For assay [1], the target named is T1, Carboxypeptidase B (Homo sapiens, UniProt P15086).
T1 sequence (P15086 whole entry): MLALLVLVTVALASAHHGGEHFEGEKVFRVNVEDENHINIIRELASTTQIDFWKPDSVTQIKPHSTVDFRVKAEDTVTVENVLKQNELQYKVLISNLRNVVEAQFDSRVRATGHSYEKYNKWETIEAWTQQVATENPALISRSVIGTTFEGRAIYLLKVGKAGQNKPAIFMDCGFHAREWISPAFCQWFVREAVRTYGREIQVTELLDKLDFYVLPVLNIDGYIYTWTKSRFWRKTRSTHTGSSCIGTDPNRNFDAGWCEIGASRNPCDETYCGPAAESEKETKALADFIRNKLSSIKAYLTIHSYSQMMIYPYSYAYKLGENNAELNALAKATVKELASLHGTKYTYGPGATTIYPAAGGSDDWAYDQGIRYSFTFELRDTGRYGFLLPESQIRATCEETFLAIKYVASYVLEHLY
The experiment in a line: Inhibition of human recombinant carboxypeptidase B expressed in Saccharomyces cerevisiae by microtiter plate method.

In assay [2] the target is T2, Carboxypeptidase A1 (Bos taurus, UniProt P00730).
T2 sequence (P00730 whole entry): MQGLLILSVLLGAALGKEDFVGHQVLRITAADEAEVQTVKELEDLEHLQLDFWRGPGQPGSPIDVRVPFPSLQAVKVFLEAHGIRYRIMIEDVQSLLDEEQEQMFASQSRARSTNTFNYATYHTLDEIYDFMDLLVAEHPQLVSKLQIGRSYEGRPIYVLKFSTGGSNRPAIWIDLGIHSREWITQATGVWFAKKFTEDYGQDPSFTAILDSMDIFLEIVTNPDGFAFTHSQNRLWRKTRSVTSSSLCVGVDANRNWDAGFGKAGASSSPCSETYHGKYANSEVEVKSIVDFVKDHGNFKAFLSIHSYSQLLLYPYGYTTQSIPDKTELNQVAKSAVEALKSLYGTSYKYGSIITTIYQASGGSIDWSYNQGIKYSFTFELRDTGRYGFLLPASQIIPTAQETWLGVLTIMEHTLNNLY
The experiment in a line: Inhibition of bovine pancreatic carboxypeptidase A by microtiter plate method.

One may read the Ki as a measure of affinity in units of concentration, obtained from inhibition or displacement.

In the case of `COC(=O)[C@@H]1CC[C@@H]1NC(=O)[C@@H]1CC[C@@H]1NC(=O)OCc1ccccc1`, the Ki in assay [1] turned out to be 275 µM; in assay [2], 95 µM.

With `COC(=O)CCCCNC(=O)[C@H]1CC[C@H]1NC(=O)OCc1ccccc1`, the Ki in assay [1] came out at 410 µM; in assay [2], 72.5 µM.

Regarding `COC(=O)CCNC(=O)[C@@H]1CC[C@@H]1NC(=O)OCc1ccccc1`, the Ki came out at 400 µM in assay [1] and 180 µM in assay [2].

Turning to `O=C(O)CCNC(=O)[C@@H]1CC[C@@H]1NC(=O)OCc1ccccc1`, the Ki in assay [1] was found to be 43 µM; in assay [2], 70 µM.

With `COC(=O)[C@H]1CC[C@H]1NC(=O)[C@H]1CC[C@H]1NC(=O)OCc1ccccc1`, the Ki in assay [1] worked out at 70 µM; in assay [2] it was 67 µM.

On to `COC(=O)CNC(=O)[C@@H]1CC[C@@H]1NC(=O)OCc1ccccc1`, for which the figures for the Ki in assay [1] and in assay [2] were 500 µM and 550 µM, respectively.

The values above are taken from ChEMBL document CHEMBL1137763, “Cyclobutane-containing peptides: evaluation as novel metallocarboxypeptidase inhibitors and modelling of their mode of action” (Bioorg Med Chem, 2009).
